Assay results from ChEMBL document CHEMBL3232945 (Eur J Med Chem, 2014).

Legend:
[1] = test system: Rattus norvegicus; experiment: Toxicity in anesthetized-normotensive Wistar rat assessed as heart rate at 40 mg/kg, ip after 15 mins (reference value: 313.93 +/- 9.912 bpm); format: organism-based; set-up: dose 40 mg/kg, route intraperitoneal; conditions: in vivo, 0.25 h
[2] = test system: Rattus norvegicus; experiment: Toxicity in anaesthetized-Wistar rat assessed as QRS ECG interval at 40 mg/kg, ip after 15 mins (reference value: 18.9 +/- 1.563 ms); format: organism-based; set-up: dose 40 mg/kg, route intraperitoneal; conditions: in vivo, 0.25 h
[3] = test system: Rattus norvegicus; experiment: Toxicity in anaesthetized-Wistar rat assessed as P-Q ECG interval at 40 mg/kg, ip after 60 mins (reference value: […] +/- 0.924 ms); format: organism-based; set-up: dose 40 mg/kg, route intraperitoneal; conditions: in vivo, 1 h
[4] = test system: Rattus norvegicus; experiment: Toxicity in anaesthetized-Wistar rat assessed as QRS ECG interval at 40 mg/kg, ip after 45 mins (reference value: 20.2 +/- 1.348 ms); format: organism-based; set-up: dose 40 mg/kg, route intraperitoneal; conditions: in vivo, 0.75 h
[5] = test system: Rattus norvegicus; experiment: Toxicity in anesthetized-normotensive Wistar rat assessed as heart rate at 40 mg/kg, ip after 45 mins (reference value: 316.82 +/- 8.452 bpm); format: organism-based; set-up: dose 40 mg/kg, route intraperitoneal; conditions: in vivo, 0.75 h
[6] = test system: Rattus norvegicus; experiment: Antiarrhythmic activity in barium chloride-induced Wistar rat assessed as increase in mortality time at 40 mg/kg, ip administered 60 mins before barium chloride challenge (reference value: 682.8 +/- 9.656 secs); format: functional, Heart; conditions: route intraperitoneal
[7] = test system: Rattus norvegicus; experiment: Toxicity in anaesthetized-Wistar rat assessed as P-Q ECG interval at 40 mg/kg, ip after 15 mins (reference value: 52.2 +/- 1.158 ms); format: organism-based; set-up: dose 40 mg/kg, route intraperitoneal; conditions: in vivo, 0.25 h
[8] = test system: Rattus norvegicus; experiment: Toxicity in […] normotensive Wistar rat assessed as mean arterial pressure at 40 mg/kg, ip after 45 mins (reference value: 94.83 +/- 0.943 mmHg); format: organism-based, Artery; set-up: dose 40 mg/kg, route intraperitoneal; conditions: in vivo, 0.75 h
[9] = test system: Rattus norvegicus; experiment: Toxicity in anesthetized-normotensive Wistar rat assessed as heart rate at 40 mg/kg, ip after 30 mins (reference value: 317.68 +/- 7.631 bpm); format: organism-based; set-up: dose 40 mg/kg, route intraperitoneal; conditions: in vivo, 0.5 h
[10] = test system: Rattus norvegicus; experiment: Toxicity in anaesthetized-Wistar rat assessed as Q-T ECG interval at 40 mg/kg, ip after 45 mins (reference value: 78.8 +/- 0.927 ms); format: organism-based; set-up: dose 40 mg/kg, route intraperitoneal; conditions: in vivo, 0.75 h
[11] = test system: Rattus norvegicus; experiment: Antihypertensive activity in Wistar rat assessed as mean arterial pressure at 40 mg/kg, ip after 15 mins (reference value: 195.68 +/- 1.623 mmHg); format: functional, Artery; conditions: route intraperitoneal
[12] = test system: Rattus norvegicus; experiment: Toxicity in […] normotensive Wistar rat assessed as mean arterial pressure at 40 mg/kg, ip after 15 mins (reference value: 93.81 +/- 1.543 mmHg); format: organism-based, Artery; set-up: dose 40 mg/kg, route intraperitoneal; conditions: in vivo, 0.25 h
[13] = test system: Rattus norvegicus; experiment: Toxicity in anesthetized-normotensive Wistar rat assessed as heart rate at 40 mg/kg, ip after 60 mins (reference value: 314.96 +/- 9.442 bpm); format: organism-based; set-up: dose 40 mg/kg, route intraperitoneal; conditions: in vivo, 1 h
[14] = test system: Rattus norvegicus; experiment: Antihypertensive activity in Wistar rat assessed as mean arterial pressure at 40 mg/kg, ip after 60 mins (reference value: 195.11 +/- 0.531 mmHg); format: functional, Artery; conditions: route intraperitoneal
[15] = test system: Rattus norvegicus; experiment: Toxicity in anaesthetized-Wistar rat assessed as Q-T ECG interval at 40 mg/kg, ip after 15 mins (reference value: 79.4 +/- 1.270 ms); format: organism-based; set-up: dose 40 mg/kg, route intraperitoneal; conditions: in vivo, 0.25 h
[16] = test system: Rattus norvegicus; experiment: Toxicity in anaesthetized-Wistar rat assessed as QRS ECG interval at 40 mg/kg, ip after 60 mins (reference value: 19.3 +/- 0.873 ms); format: organism-based; set-up: dose 40 mg/kg, route intraperitoneal; conditions: in vivo, 1 h
[17] = test system: Rattus norvegicus; experiment: Toxicity in […] normotensive Wistar rat assessed as mean arterial pressure at 40 mg/kg, ip after 30 mins (reference value: 94.68 +/- 1.213 mmHg); format: organism-based, Artery; set-up: dose 40 mg/kg, route intraperitoneal; conditions: in vivo, 0.5 h
[18] = test system: Rattus norvegicus; experiment: Toxicity in […] normotensive Wistar rat assessed as mean arterial pressure at 40 mg/kg, ip measured immediately at 0 min (reference value: 94.21 +/- 2.065 mmHg); format: organism-based, Artery; set-up: dose 40 mg/kg, route intraperitoneal; conditions: in vivo, 0 h
[19] = test system: Rattus norvegicus; experiment: Toxicity in anaesthetized-Wistar rat assessed as Q-T ECG interval at 40 mg/kg, ip measured immediately at 0 min (reference value: 78.8 +/- 1.030 ms); format: organism-based; set-up: dose 40 mg/kg, route intraperitoneal; conditions: in vivo, 0 h
[20] = test system: Rattus norvegicus; experiment: Antiarrhythmic activity in barium chloride-induced Wistar rat assessed as increase in appearance time of arrhythmia at 40 mg/kg, ip administered 60 mins before barium chloride challenge (reference value: 129.4 +/- 4.373 sec); format: functional, Heart; conditions: route intraperitoneal
[21] = test system: Rattus norvegicus; experiment: Toxicity in […] normotensive Wistar rat assessed as mean arterial pressure at 40 mg/kg, ip after 60 mins (reference value: 95.07 +/- 1.973 mmHg); format: organism-based, Artery; set-up: dose 40 mg/kg, route intraperitoneal; conditions: in vivo, 1 h
[22] = test system: Rattus norvegicus; experiment: Toxicity in anaesthetized-Wistar rat assessed as Q-T ECG interval at 40 mg/kg, ip after 60 mins (reference value: 79.7 +/- 0.965 ms); format: organism-based; set-up: dose 40 mg/kg, route intraperitoneal; conditions: in vivo, 1 h
[23] = test system: Rattus norvegicus; experiment: Toxicity in anaesthetized-Wistar rat assessed as QRS ECG interval at 40 mg/kg, ip after 30 mins (reference value: 19.9 +/- 1.393 ms); format: organism-based; set-up: dose 40 mg/kg, route intraperitoneal; conditions: in vivo, 0.5 h
[24] = test system: Rattus norvegicus; experiment: Toxicity in anaesthetized-Wistar rat assessed as QRS ECG interval at 40 mg/kg, ip measured immediately at 0 min (reference value: 19.6 +/- 1.142 ms); format: organism-based; set-up: dose 40 mg/kg, route intraperitoneal; conditions: in vivo, 0 h
[25] = test system: Rattus norvegicus; experiment: Toxicity in anesthetized-normotensive Wistar rat assessed as heart rate at 40 mg/kg, ip measured immediately at 0 min (reference value: 316.62 +/- 9.643 bpm); format: organism-based; set-up: dose 40 mg/kg, route intraperitoneal; conditions: in vivo, 0 h
[26] = test system: Rattus norvegicus; experiment: Antihypertensive activity in Wistar rat assessed as mean arterial pressure at 40 mg/kg, ip measured immediately at 0 min (reference value: 194.08 +/- 1.962 mmHg); format: functional, Artery; conditions: route intraperitoneal
[27] = test system: Rattus norvegicus; experiment: Toxicity in anaesthetized-Wistar rat assessed as Q-T ECG interval at 40 mg/kg, ip after 30 mins (reference value: 78.3 +/- 0.860 ms); format: organism-based; set-up: dose 40 mg/kg, route intraperitoneal; conditions: in vivo, 0.5 h
[28] = test system: Rattus norvegicus; experiment: Antihypertensive activity in Wistar rat assessed as mean arterial pressure at 40 mg/kg, ip after 30 mins (reference value: 194.72 +/- 1.002 mmHg); format: functional, Artery; conditions: route intraperitoneal
[29] = test system: Rattus norvegicus; experiment: Antihypertensive activity in Wistar rat assessed as mean arterial pressure at 40 mg/kg, ip after 45 mins (reference value: 193.96 +/- 0.865 mmHg); format: functional, Artery; conditions: route intraperitoneal
[30] = test system: Rattus norvegicus; experiment: Toxicity in anaesthetized-Wistar rat assessed as P-Q ECG interval at 40 mg/kg, ip after 30 mins (reference value: […] +/- 0.927 ms); format: organism-based; set-up: dose 40 mg/kg, route intraperitoneal; conditions: in vivo, 0.5 h
[31] = test system: Rattus norvegicus; experiment: Toxicity in anaesthetized-Wistar rat assessed as P-Q ECG interval at 40 mg/kg, ip after 45 mins (reference value: 52.5 +/- 0.780 ms); format: organism-based; set-up: dose 40 mg/kg, route intraperitoneal; conditions: in vivo, 0.75 h
[32] = test system: Rattus norvegicus; experiment: Toxicity in anaesthetized-Wistar rat assessed as P-Q ECG interval at 40 mg/kg, ip measured immediately at 0 min (reference value: 52.4 +/- 0.927 ms); format: organism-based; set-up: dose 40 mg/kg, route intraperitoneal; conditions: in vivo, 0 h

Row | SMILES | Activity [1] [bpm] | Activity [2] [min] | Activity [3] [min] | Activity [4] [min] | Activity [5] [bpm] | Time [6] [s] | Activity [7] [min] | Activity [8] [mmHg] | Activity [9] [bpm] | Activity [10] [min] | Activity [11] [mmHg] | Activity [12] [mmHg] | Activity [13] [bpm] | Activity [14] [mmHg] | Activity [15] [min] | Activity [16] [min] | Activity [17] [mmHg] | Activity [18] [mmHg] | Activity [19] [min] | Time [20] [s] | other results
1 | O=C1/C(=C\c2ccccc2)S/C(=N\c2ccccc2)N1CC(O)CN1CCNCC1 (stereo unspecified) | 292.46 | 21.6 | 55.1 | 23.7 | 269.73 | 1380.5 | 54.7 | 62.53 | 259.31 | 82.4 | 176.65 | 78.76 | 298.12 | 159.08 | 80.6 | 22.4 | 62.26 | 92.33 | 80.2 | 379.7 | Activity [21]: 70.27 mmHg; Activity [22]: 82.1 ms; Activity [23]: 23.8 ms; Activity [24]: 20.8 min; Activity [25]: 302.12 bpm; Activity [26]: 196.63 mmHg; Activity [27]: 81.8 min; Activity [28]: 153.16 mmHg; Activity [29]: 128.32 mmHg; Activity [30]: 56.4 min; Activity [31]: 56.9 min; Activity [32]: 54.3 ms
2 | CC(C)N1CCN(CC(O)CN2C(=O)/C(=C\c3ccccc3)S/C2=N\c2ccccc2)CC1 (stereo unspecified) | 298.46 | 23.7 | 55.6 | 24.6 | 253.26 | 1213.7 | 53.9 | 65.43 | 272.41 | 77.1 | 185.53 | 79.32 | 302.92 | 160.84 | 76.2 | 24.8 | 62.08 | 92.09 | 76 | 354.8 | Activity [21]: 76.27 mmHg; Activity [22]: 77.4 ms; Activity [23]: 24.1 ms; Activity [24]: 23.3 min; Activity [25]: 310.34 bpm; Activity [26]: 193.37 mmHg; Activity [27]: 76.6 min; Activity [28]: 161.56 mmHg; Activity [29]: 146.51 mmHg; Activity [30]: 54.1 min; Activity [31]: 55.2 min; Activity [32]: 53.5 ms
3 | O=C1/C(=C\c2ccccc2)S/C(=N\c2ccccc2)N1CC(O)CN1CCN(c2ccccc2)CC1 (stereo unspecified) | 309.46 | 22.2 | 54.2 | 24.1 | 287.25 | 964.4 | 52.7 | 79.26 | 295.41 | 74.9 | 180.43 | 86.43 | 301.92 | 182.32 | 73.9 | 24.7 | 76.84 | 94.56 | 73.5 | 285.4 | Activity [21]: 83.55 mmHg; Activity [22]: 75 ms; Activity [23]: 23.5 ms; Activity [24]: 21.8 min; Activity [25]: 318.34 bpm; Activity [26]: 194.87 mmHg; Activity [27]: 74.2 min; Activity [28]: 146.27 mmHg; Activity [29]: 156.09 mmHg; Activity [30]: 53.3 min; Activity [31]: 53.9 min; Activity [32]: 52.4 ms
